In patent US6800630B2, “Pyrimidine derivatives having antitumor effect” (Shionogi & Co., Ltd., priority 2000, dated 2004):
≈ marks a conversion by molar mass, not a printed value.

test system: DT-C cells (pGV-P transfected v-ki-ras-transformed NIH373 cells); test: Luciferase activity of DT-C control cells (IC50-C), index of non-specific transcription-inhibitory effect or cytotoxicity; assay type: cell-based; details: tested concentration nearest to 50% inhibition in DT-C cells
Description: (§1) Test Example 1 Inhibitory effect against cellular signaling derived from Ras oncogene products
(§2) Based on the reporter plasmid (pGV-P (Toyo Ink, Japan)), in which luciferase gene was ligated to SV40-derived minimal promoter, we constructed a plasmid designated pRRE3-luc by inserting 3 copies of chemically synthesized oligonucleotides (Sequence: CAGGATATGACTCT, derived from mouse NVL-3 (M. A. Reddy et al.(1992)Mol. Endocrinol., 6, 1051)) into upstream of the promoter. v-ki-ras-transformed NIH373 cells (DT cells, provided by Dr. Makoto Noda (Kyoto Univ., School of medicine)) were transfected with this plasmid by liposome-mediated transfection and transfected cell lines stably incorporated and maintained each plasmid were obtained. We named pGV-P and pRRE3-transfected cell line as DT-C and DT-R, respectively and used in the assay described below.
(§3) i) All the cell lines were cultured in Dulbecco's Modified Essential Medium (DMEM: 10% Fetal Calf Serum(FCS: Hyclone, USA)) including […] kanamycin (Meiji Seika, Japan) in humidified incubator under condition of 5% CO2 at 37° C.
(§4) ii) DT-C and DT-R cells were seeded at 2500 cells/well into flat-bottom 96 well multiplate (Sumitomo bakelite) and incubated for 24 hours.
(§5) iii) Test compounds were prepared as 1 mg/ml DMSO solution.
(§6) iv) The solution of test compounds were added to the culture. Tested compounds are used at the concentration from […] to 0.51 ng/ml with 3-fold dilution.
(§7) v) After 24 hours, the culture supernatant was completely aspirated and 20 μl of cell-lysing solution (PGC-50 (Toyo Ink, Japan)) was added before cells were dried up. In order to lyse the cells completely, multiwell plates were left at room temperature for 10 to 30 min. The plates were wrapped up and stored at −20° C. till the day of measurement.
(§8) i) Melt the samples by putting 96 well multiplate at 37° C. and add 90 μl/well 25 mM Tris (pH 7.5).
(§9) ii) Transfer 50 μl of the sample (110 μl) to the 96 well microplate (Microlite 1 (Dynatech)) for measurement.
(§10) iii) Measure the samples by the luminometer, LUMINOUS CT9000D (Dia-Yatron, Japan). We used Pickagene luminescence kit PGL2000 or LT2.0 (Toyo Ink, Japan) as enzyme substrates for luminescence measurement (50 μl/well).
(§11) i) The luciferase activity of DT-C cells and DT-R cells were plotted in the graph where the relative activity and the compound concentration were expressed as Y-axis and X-axis, respectively. We judged by the degree of dissociation between the activities of DT-C cells and DT-R cells as an index.
b) Among the points of concentration tested, the concentration which is the nearest to 50% inhibition concentration at DT-C cells (IC50-C), was shown as an index of non-specific transcription-inhibitory effect or of cytotoxicity. In case of positive compounds, 50% inhibition concentration in DT-C cells which was higher than the active concentration was expressed as IC50-C.

| Structure (SMILES) | IC50 (IC50-C) [µg/mL] |
| --- | --- |
| CCCNC(=Nc1nc(C)ncc1CSc1nnc(-c2ccc(N)cc2)o1)SC [Compound A-12] | >10 |
| CCCSC(=Nc1nc(C)ncc1CSc1nnc(-c2ccc(N)cc2)o1)NCC [Compound A-16] | >10 |
| CCCSC(=Nc1nc(C)ncc1CSc1nnc(-c2ccc([N+](=O)[O-])cc2)o1)NC [Compound A-7] | 3.33 (≈ 7.25 µM) |
| CCCSC(=Nc1nc(C)ncc1CSc1nnc(-c2ccc([N+](=O)[O-])cc2)o1)NCC [Compound A-8] | >10 |
| CCCSC(=Nc1nc(C)ncc1CSc1nnc(-c2ccc(N)cc2)o1)NC [Compound A-15] | >10 |

test system: signal derived from Ras oncogene products (DT-R cells, pRRE3-luc transfected v-ki-ras-transformed NIH373 cells); test: Inhibitory effect against cellular signaling derived from Ras oncogene products: RRE-luciferase reporter, Minimal Active Concentration (MAC) at which DT-C and DT-R activities dissociate; assay type: cell-based; details: minimal concentration at which luciferase activities of DT-C and DT-R cells dissociated
Description: as §1, §2, §3, §4, §5, §6, §7, §8, §9, §10, §11
ii) Concretely, efficacy of the compound was expressed by two values described below.
a) Among the points of concentration tested, the minimal concentration (Minimal Active Concentration: MAC), at which the activities of DT-C cells and DT-R cells dissociated, was shown as an index of efficacy of the compound.

| Structure (SMILES) | MAC (Minimal Active Concentration) [µg/mL] |
| --- | --- |
| CCCNC(=Nc1nc(C)ncc1CSc1nnc(-c2ccc(N)cc2)o1)SC [Compound A-12] | 0.0137 |
| CCCSC(=Nc1nc(C)ncc1CSc1nnc(-c2ccc(N)cc2)o1)NCC [Compound A-16] | <0.000508 |
| CCCSC(=Nc1nc(C)ncc1CSc1nnc(-c2ccc([N+](=O)[O-])cc2)o1)NC [Compound A-7] | 0.123 |
| CCCSC(=Nc1nc(C)ncc1CSc1nnc(-c2ccc([N+](=O)[O-])cc2)o1)NCC [Compound A-8] | 0.123 |
| CCCSC(=Nc1nc(C)ncc1CSc1nnc(-c2ccc(N)cc2)o1)NC [Compound A-15] | 0.00152 |

test system: human squamous lung cancer RERF-RC-AI; test: In vitro cell growth inhibition test, MTT assay; assay type: cell-based; details: MTT assay 4 days after compound addition
Description: (§12) Test Example 2 In vitro cell growth inhibition test Cells and MTT assay
(§13) Human squamous lung cancer […], human squamous lung cancer Ma44, human lung adenocarcinoma A549, human colon cancer HT29 and human pancreas cancer PANC-1 were used.

| IC50 RERF-LC-AI [µg/mL] | Structure (SMILES) |
| --- | --- |
| 0.0073 (≈ 0.0165 µM) | CCCSC(=Nc1nc(C)ncc1CSc1nnc(-c2ccc(N)cc2)o1)NCC [Compound A-16] |
| 0.0065 (≈ 0.0151 µM) | CCCSC(=Nc1nc(C)ncc1CSc1nnc(-c2ccc(N)cc2)o1)NC [Compound A-15] |

The next lines start with the compound.

| Structure (SMILES) | IC50 RERF-LC-AI [µg/mL] |
| --- | --- |
| CCCNC(=Nc1nc(C)ncc1CSc1nnc(-c2ccc(N)cc2)o1)SC [Compound A-12] | 0.0057 (≈ 0.0133 µM) |
| CCCSC(=Nc1nc(C)ncc1CSc1nnc(-c2ccc([N+](=O)[O-])cc2)o1)NC [Compound A-7] | 0.0013 (≈ 0.00283 µM) |
| CCCSC(=Nc1nc(C)ncc1CSc1nnc(-c2ccc([N+](=O)[O-])cc2)o1)NCC [Compound A-8] | 0.0278 (≈ 0.0587 µM) |

test system: human colon cancer HT29; test: In vitro cell growth inhibition test, MTT assay; assay type: cell-based; details: MTT assay 4 days after compound addition
Description: as §12, §13

| IC50 HT-29 [µg/mL] | Structure (SMILES) |
| --- | --- |
| 0.0081 (≈ 0.0183 µM) | CCCSC(=Nc1nc(C)ncc1CSc1nnc(-c2ccc(N)cc2)o1)NCC [Compound A-16] |
| 0.0103 (≈ 0.024 µM) | CCCSC(=Nc1nc(C)ncc1CSc1nnc(-c2ccc(N)cc2)o1)NC [Compound A-15] |

The next lines start with the compound.

| Structure (SMILES) | IC50 HT-29 [µg/mL] |
| --- | --- |
| CCCNC(=Nc1nc(C)ncc1CSc1nnc(-c2ccc(N)cc2)o1)SC [Compound A-12] | 0.0063 (≈ 0.0147 µM) |
| CCCSC(=Nc1nc(C)ncc1CSc1nnc(-c2ccc([N+](=O)[O-])cc2)o1)NC [Compound A-7] | 0.0036 (≈ 0.00783 µM) |
| CCCSC(=Nc1nc(C)ncc1CSc1nnc(-c2ccc([N+](=O)[O-])cc2)o1)NCC [Compound A-8] | 0.0414 (≈ 0.0874 µM) |

test system: human lung adenocarcinoma A549; test: In vitro cell growth inhibition test, MTT assay; assay type: cell-based; details: MTT assay 4 days after compound addition
Description: as §12, §13

| IC50 A549 [µg/mL] | Structure (SMILES) |
| --- | --- |
| 0.0146 (≈ 0.0329 µM) | CCCSC(=Nc1nc(C)ncc1CSc1nnc(-c2ccc(N)cc2)o1)NCC [Compound A-16] |
| 0.0111 (≈ 0.0258 µM) | CCCSC(=Nc1nc(C)ncc1CSc1nnc(-c2ccc(N)cc2)o1)NC [Compound A-15] |

Further lines, the compound ahead of its results:

| Structure (SMILES) | IC50 A549 [µg/mL] |
| --- | --- |
| CCCNC(=Nc1nc(C)ncc1CSc1nnc(-c2ccc(N)cc2)o1)SC [Compound A-12] | 0.008 (≈ 0.0186 µM) |
| CCCSC(=Nc1nc(C)ncc1CSc1nnc(-c2ccc([N+](=O)[O-])cc2)o1)NC [Compound A-7] | 0.0021 (≈ 0.00457 µM) |
| CCCSC(=Nc1nc(C)ncc1CSc1nnc(-c2ccc([N+](=O)[O-])cc2)o1)NCC [Compound A-8] | 0.0093 (≈ 0.0196 µM) |

test system: human squamous lung cancer Ma44; test: In vitro cell growth inhibition test, MTT assay; assay type: cell-based; details: MTT assay 4 days after compound addition
Description: as §12, §13

| IC50 Ma44 [µg/mL] | Structure (SMILES) |
| --- | --- |
| 0.0136 (≈ 0.0307 µM) | CCCSC(=Nc1nc(C)ncc1CSc1nnc(-c2ccc(N)cc2)o1)NCC [Compound A-16] |
| 0.0127 (≈ 0.0296 µM) | CCCSC(=Nc1nc(C)ncc1CSc1nnc(-c2ccc(N)cc2)o1)NC [Compound A-15] |

Second part, the compound before the results:

| Structure (SMILES) | IC50 Ma44 [µg/mL] |
| --- | --- |
| CCCNC(=Nc1nc(C)ncc1CSc1nnc(-c2ccc(N)cc2)o1)SC [Compound A-12] | 0.0095 (≈ 0.0221 µM) |
| CCCSC(=Nc1nc(C)ncc1CSc1nnc(-c2ccc([N+](=O)[O-])cc2)o1)NC [Compound A-7] | 0.0016 (≈ 0.00348 µM) |
| CCCSC(=Nc1nc(C)ncc1CSc1nnc(-c2ccc([N+](=O)[O-])cc2)o1)NCC [Compound A-8] | 0.0341 (≈ 0.072 µM) |

test system: human pancreas cancer PANC-1; test: In vitro cell growth inhibition test, MTT assay; assay type: cell-based; details: MTT assay 4 days after compound addition
Description: as §12, §13

| IC50 PANC-1 [µg/mL] | Structure (SMILES) |
| --- | --- |
| 0.0065 (≈ 0.0147 µM) | CCCSC(=Nc1nc(C)ncc1CSc1nnc(-c2ccc(N)cc2)o1)NCC [Compound A-16] |
| 0.0124 (≈ 0.0289 µM) | CCCSC(=Nc1nc(C)ncc1CSc1nnc(-c2ccc(N)cc2)o1)NC [Compound A-15] |

Further lines, the compound ahead of its results:

| Structure (SMILES) | IC50 PANC-1 [µg/mL] |
| --- | --- |
| CCCNC(=Nc1nc(C)ncc1CSc1nnc(-c2ccc(N)cc2)o1)SC [Compound A-12] | 0.0091 (≈ 0.0212 µM) |
| CCCSC(=Nc1nc(C)ncc1CSc1nnc(-c2ccc([N+](=O)[O-])cc2)o1)NC [Compound A-7] | 0.0006 (≈ 0.00131 µM) |
| CCCSC(=Nc1nc(C)ncc1CSc1nnc(-c2ccc([N+](=O)[O-])cc2)o1)NCC [Compound A-8] | 0.0371 (≈ 0.0783 µM) |

test system: H460; test: In vitro cell growth inhibition test, MTT assay; assay type: cell-based; details: MTT assay 4 days after compound addition
Description: [The source words this procedure for another cell line and reports this cell line under the same test.] as §12, §13

| IC50 H460 [µg/mL] | Structure (SMILES) |
| --- | --- |
| 0.0107 (≈ 0.0241 µM) | CCCSC(=Nc1nc(C)ncc1CSc1nnc(-c2ccc(N)cc2)o1)NCC [Compound A-16] |
| 0.0153 (≈ 0.0356 µM) | CCCSC(=Nc1nc(C)ncc1CSc1nnc(-c2ccc(N)cc2)o1)NC [Compound A-15] |

The remaining lines, values behind:

| Structure (SMILES) | IC50 H460 [µg/mL] |
| --- | --- |
| CCCNC(=Nc1nc(C)ncc1CSc1nnc(-c2ccc(N)cc2)o1)SC [Compound A-12] | 0.0115 (≈ 0.0268 µM) |
| CCCSC(=Nc1nc(C)ncc1CSc1nnc(-c2ccc([N+](=O)[O-])cc2)o1)NC [Compound A-7] | 0.0038 (≈ 0.00827 µM) |
| CCCSC(=Nc1nc(C)ncc1CSc1nnc(-c2ccc([N+](=O)[O-])cc2)o1)NCC [Compound A-8] | 0.0068 (≈ 0.0144 µM) |
